Experimental data from patent US8058285B2, “Substituted pyrido [3′, 2′: 4, 5] thieno [3, 2-D] pyrimidines and pyrido [3′, 2′: 4, 5] furo [3, 2-D] pyrimidines used as inhibitors of the PDE-4 and/or the release of TNF-ALPHA” (The Medicines Company (Leipzig) GmbH, priority 2004, dated 2011).
pIC50: −log10 of the molar value. Structures can show the parent of a compound that is named as a salt.

Target: T1, PDE-4A (Homo sapiens, UniProt P27815)
T1 construct: PDE-4A catalytic domain comprising amino acids 342-704; made in house; host or cells: Escherichia coli
Assay: PDE-4A inhibitory assay (SPA)
Type: biochemical
Excerpt: Human recombinant PDE-4A catalytic domain comprising amino acids 342-704 was cloned into Escherichia coli and expressed, as described by W. Richter et al., Protein Expression and Purification (2000) 19: 375-383. The other posphodiesterases were either obtained from cell lines of human origin (TPH1 monocytes line for PDE-1, MCF7 for PDE-5) or expressed recombinantly in sf9 insect cells (for PDE-3A, PDE-3B, PDE-7A and PDE-4D) in accordance with an adapted method by Luckow, V. A. et al., in: Recombinant DNA Technology & Applications., (1991) eds. Prokop, Bajpai, R. K. & Ho, C. S., pp 97-152.
The phosphodiesterase activity was determined by the SPA assay as described by the manufacturer Amersham Biosciences and by Horton J. K and Baxendale P. M., Methods Mol. Biol. (1995) 41: 91-105.
The reaction mixtures contained 100 mM Tris-HCl (pH 7.5), 5 mM MgCl2, 3.8 mM 2-mercaptoethanol, and 1 μM cAMP or cGMP as a substrate, the inhibitors at different concentrations and also further components required for the detection of the individual isoenzymes (see below). The reaction was started by adding the enzyme. The operating volume is 100 μl in the wells of a white 96-Well microtiter plate. The test substances were produced as stock solutions in DMSO. The DMSO concentration in the reaction batch was 1% v/v. The PDE activity is not impaired with this DMSO concentration. Having started the reaction by the addition of enzyme, the samples were incubated at 22° C. for 20 min. The reaction was stopped by the addition of SPA bead suspension which contains the zinc sulfate concentration provided according to the manufacturer. Then, the beads are allowed to sediment for 30 min and the plates are analyzed on the luminescence microtiter plate reader Fluostar Optima (BMG Labtechologies).
[^3H]-cAMP was used as a substrate for determining the activity of PDE-2, -3, -4 and -7 and [^3H]-cGMP for determining the activity of PDE-5. The non-specific enzyme activities were determined in the presence of 100 μM rolipram (for PDE-4) and in the presence of 100 μM IBMX (for PDE-3 and -5) and subtracted from the test values. The incubation samples of the PDE-3 assay contain 10 μM rolipram to inhibit possible contaminations by PDE-4. The PDE-2 activity is tested using a SPA assay by Amersham Biosciences in the presence of the PDE-2 activator 5 μM cGMP. […] The selectivity as to PDEs 2, 3 and 5 has a factor of 100 to 10 000.

T1 sequence (P27815 342-704): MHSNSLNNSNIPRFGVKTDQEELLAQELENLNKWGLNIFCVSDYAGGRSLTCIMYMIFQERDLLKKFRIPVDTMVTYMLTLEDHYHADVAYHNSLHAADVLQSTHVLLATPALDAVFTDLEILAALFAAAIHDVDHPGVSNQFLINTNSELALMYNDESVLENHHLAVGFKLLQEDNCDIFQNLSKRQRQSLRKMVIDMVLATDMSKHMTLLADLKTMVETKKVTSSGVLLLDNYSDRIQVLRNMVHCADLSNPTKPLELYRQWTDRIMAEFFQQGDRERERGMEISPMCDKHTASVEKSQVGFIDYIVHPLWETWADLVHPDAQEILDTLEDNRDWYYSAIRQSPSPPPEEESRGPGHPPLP

Row | pIC50 | SMILES
1 | 7.30 to 8.70 | CCOc1nc(N2CCNCC2)nc2c1sc1nc(-c3ccc4c(c3)OCO4)cc(C)c12 [4-Ethoxy-9-methyl-7-(3,4-methylenedioxyphenyl)-2-piperazin-1-yl-pyrido[3′,2′:4,5]thieno-[3,2-d]pyrimidine]
2 | 7.30 to 8.70 | Cc1cc(-c2ccccc2)nc2sc3c(OCC(F)F)nc(N4CCNCC4)nc3c12 [4-(2,2-Difluoro-ethoxy)-9-methyl-7-phenyl-2-(piperazin-1-yl)-pyrido[3′,2′:4,5]thieno[3,2-d]pyrimidine]
3 | 7.30 to 8.70 | CCOc1nc(N2CCNCC2)c2sc3nc(C)cc(-c4ccccc4)c3c2n1 [2-Ethoxy-7-methyl-9-phenyl-4-(piperazin-1-yl)-pyrido[3′,2′:4,5]thieno[3,2-d]pyrimidine]
4 | > 8.70 | CCOc1nc(N2CCNCC2)nc2c1sc1nc(-c3cccc(C#N)c3)cc(C(F)(F)F)c12 [7-(3-Cyano-phenyl)-4-ethoxy-2-piperazin-1-yl-9-trifluoromethyl-pyrido[3′,2′:4,5]thieno[3,2-d]pyrimidine]
5 | > 8.70 | CCOc1nc(N2CCNCC2)nc2c1sc1nc(-c3ccc(C)cc3)cc(C(F)(F)F)c12 [4-Ethoxy-7-(4-methyl-phenyl)-2-(piperazin-1-yl)-9-trifluoromethyl-pyrido[3′,2′:4,5]thieno[3,2-d]pyrimidine]
6 | 7.30 to 8.70 | Cc1cc(-c2ccccc2)nc2sc3c(OC(C)C)nc(N4CCNCC4)nc3c12 [9-Methyl-7-phenyl-2-(piperazin-1-yl)-4-iso-propoxy-pyrido[3′,2′:4,5]thieno[3,2-d]pyrimidine]
7 | 7.30 to 8.70 | CCOc1nc(N2CCNCC2)c2sc3nc(-c4cccs4)cc(C)c3c2n1 [2-Ethoxy-9-methyl-7-thien-2-yl-9-methyl-4-(piperazin-1-yl)-pyrido[3′,2′:4,5]thieno[3,2-d]pyrimidine]
8 | > 8.70 | CCOc1nc(N2CCNCC2)nc2c1sc1nc(-c3ccc(-n4cccc4)cc3)cc(C(F)(F)F)c12 [4-Ethoxy-9-trifluoromethyl-2-piperazin-1-yl-7-(4-(1H-pyrrol-1-yl)-phenyl)-pyrido[3′,2′:4,5]thieno[3,2-d]pyrimidine]
9 | 7.30 to 8.70 | Cc1cc(-c2ccccc2)nc2sc3c(OCCO)nc(N4CCNCC4)nc3c12 [4-(2-Hydroxy-ethoxy)-9-methyl-7-phenyl-2-(piperazin-1-yl)-pyrido[3′,2′:4,5]thieno[3,2-d]pyrimidine]
10 | > 8.70 | CCOC(=O)c1ccc(-c2cc(C(F)(F)F)c3c(n2)sc2c(OCC)nc(N4CCNCC4)nc23)cc1 [4-[4-Ethoxy-2-(piperazin-1-yl)-9-trifluoromethyl-pyrido[3′,2′:4,5]thieno[3,2-d]pyrimidin-7-yl]-benzoic acid ethyl ester]
11 | 7.30 to 8.70 | CCOc1nc(N2CCNCC2)nc2c1sc1nc(C(C)C)cc(C(C)C)c12 [4-Ethoxy-7,9-di-iso-propyl-2-(piperazin-1-yl)-pyrido[3′,2′:4,5]thieno[3,2-d]pyrimidine]
12 | 7.30 to 8.70 | CCOc1nc(N2CCNCC2)c2sc3nc(C(C)C)cc(C(C)C)c3c2n1 [2-Ethoxy-7,9-di-iso-propyl-4-(piperazin-1-yl)-pyrido[3′,2′:4,5]thieno[3,2-d]pyrimidine]
13 | 7.30 to 8.70 | CCOC(=O)c1ccc(-c2ccc(-c3nc(C)c4c(n3)sc3c(OCC)nc(N5CCNCC5)nc34)cc2)cc1 [4-(4-Ethoxy-9-methyl-2-piperazin-1-yl-thieno[2,3-d:4,5-d′]dipyrimidin-7-yl)-biphenyl-4′-carboxylic acid ethyl ester]
14 | > 8.70 | CCOc1nc(N2CCNCC2)nc2c1sc1nc(-c3ccc4c(c3)OCCO4)cc(C(F)(F)F)c12 [7-(2,3-Dihydrobenzo[b][1,4]dioxin-6-yl)-4-ethoxy-2-(piperazin-1-yl)-9-trifluoromethyl-pyrido[3′,2′:4,5]thieno[3,2-d]pyrimidine]
15 | 7.30 to 8.70 | CCOc1nc(N2CCNCC2)nc2c1sc1nc(-c3ccc(-c4ccc(C(=O)O)cc4)cc3)nc(C)c12 [4-(4-Ethoxy-9-methyl-2-piperazin-1-yl-thieno[2,3-d:4,5-d′]dipyrimidin-7-yl)-biphenyl-4′-carboxylic acid sodium salt]
16 | 7.30 to 8.70 | CCOc1nc(N2CCNCC2)nc2c1sc1nc(N3CCOCC3)c3c(c12)CCN(C)C3 [8-Ethoxy-3-methyl-5-morpholino-10-piperazin-1-yl-pyrimido[4′,5′:4,5]thieno[2,7]-1,2,3,4-tetrahydro-naphthyridine]

The remaining lines, values behind:

Row | SMILES | pIC50
17 | CCOc1nc(N2CCNCC2)nc2c1sc1nc(-c3ccc(Cl)cc3)cc(CC)c12 [7-(4-Chloro-phenyl)-9-ethyl-4-ethoxy-2-(piperazin-1-yl)-pyrido[3′,2′:4,5]thieno[3,2-d]pyrimidine] | 7.30 to 8.70
18 | CCOc1nc(N2CCNCC2)nc2c1sc1nc(-c3ccccn3)cc(C(F)(F)F)c12 [4-Ethoxy-2-piperazin-1-yl-7-(2-pyridyl)-9-trifluoromethyl-pyrido[3′,2′:4,5]thieno[3,2-d]pyrimidine] | 7.30 to 8.70
19 | CCOc1nc(N2CCNCC2)c2sc3nc(-c4ccc(C)cc4)cc(C)c3c2n1 [2-Ethoxy-9-methyl-7-(4-methyl-phenyl)-4-(piperazin-1-yl)-pyrido[3′,2′:4,5]thieno[3,2-d]pyrimidine] | 7.30 to 8.70
20 | CCOc1nc(N2CCNCC2)nc2c1sc1nc(-c3cccs3)cc(C)c12 [4-Ethoxy-9-methyl-7-thien-2-yl-2-(piperazin-1-yl)-pyrido[3′,2′:4,5]thieno[3,2-d]pyrimidine] | 7.30 to 8.70
21 | CCOc1nc(N2CCNCC2)nc2c1sc1nc(-c3ccc(OCc4ccc([N+](=O)[O-])cc4)cc3)cc(C(F)(F)F)c12 [4-Ethoxy-7-[4-(4-nitrobenzyloxy)-phenyl]-2-piperazin-1-yl-9-trifluoromethyl-pyrido[3′,2′:4,5]thieno[3,2-d]pyrimidine] | 7.30 to 8.70
22 | CCOc1nc(N2CCNCC2)c2sc3nc(N4CCOCC4)cc(C)c3c2n1 [2-Ethoxy-9-methyl-7-morpholino-4-(piperazin-1-yl)-pyrido[3′,2′:4,5]thieno[3,2-d]pyrimidine] | 7.30 to 8.70
23 | CCOc1nc(N2CCNCC2)nc2c1sc1nc(N3CCN(C)CC3)c3c(c12)CCCC3 [8-Ethoxy-5-(N-methyl-piperazin-1-yl)-10-piperazin-1-yl-pyrimido[4′,5′:4,5]thieno[2,3-c]-1,2,3,4-tetrahydro-isoquinoline] | 7.30 to 8.70
24 | CCOc1nc(N2CCNCC2)nc2c1sc1nc(-c3ccc4c(c3)OCO4)cc(C(F)(F)F)c12 [4-Ethoxy-7-(3,4-methylenedioxyphenyl)-2-piperazin-1-yl-9-trifluoromethyl-pyrido[3′,2′:4,5]thieno-[3,2-d]pyrimidine] | > 8.70
25 | CCOc1nc(N2CCNCC2)nc2c1sc1nc(-c3cc(OC)c(OC)c(OC)c3)cc(C(F)(F)F)c12 [4-Ethoxy-2-piperazin-1-yl-9-trifluoromethyl-7-(3,4,5-trimethoxy-phenyl)-pyrido[3′,2′:4,5]thieno[3,2-d]pyrimidine] | 7.30 to 8.70
26 | CCOc1nc(N2CCNCC2)nc2c1sc1nc(-c3ccc(-c4ccn(C(=O)OC(C)(C)C)c4)cc3)nc(C)c12 [4-Ethoxy-9-methyl-2-piperazin-1-yl-7-(4-[N—BOC-3-pyrrolyl]-phenyl)-thieno[2,3-d:4,5-d′]dipyrimidine] | 7.30 to 8.70
27 | CCc1cc(-c2ccc(C)cc2)nc2sc3c(N4CCNCC4)nc(OCCO)nc3c12 [2-(2-Hydroxy-ethoxy)-9-ethyl-7-(4-methyl-phenyl)-4-(piperazin-1-yl)-pyrido[3′,2′:4,5]thieno[3,2-d]pyrimidine] | 7.30 to 8.70
